Assay results as given in ChEMBL document CHEMBL3769377, “A synthesis, in silico, in vitro and in vivo study of thieno[2,3-b]pyridine anticancer analogues” (Medchemcomm, 2015).

Tests used:
[1] = target: Ephrin type-A receptor 2 (Homo sapiens) (UniProt P29317); test: Inhibition of human recombinant EPHA2 assessed as residual activity at 10 uM after 1 hr by qPCR analysis relative to control
[2] = target: Tyrosine-protein kinase JAK2 (Homo sapiens) (UniProt O60674); test: Inhibition of human recombinant JAK2 (JH1 domain-catalytic) assessed as residual activity at 10 uM after 1 hr by qPCR analysis relative to control
[3] = target: Platelet-derived growth factor receptor beta (Homo sapiens) (UniProt P09619); test: Inhibition of human recombinant PDGFRB assessed as residual activity at 10 uM after 1 hr by qPCR analysis relative to control
[4] = target: Mitogen-activated protein kinase 3 (Homo sapiens) (UniProt P27361); test: Inhibition of human recombinant ERK1 assessed as residual activity at 10 uM after 1 hr by qPCR analysis relative to control
[5] = target: RAC-alpha serine/threonine-protein kinase (Homo sapiens) (UniProt P31749); test: Inhibition of human recombinant AKT1 assessed as residual activity at 10 uM after 1 hr by qPCR analysis relative to control
[6] = target: Insulin receptor (Homo sapiens) (UniProt P06213); test: Inhibition of human recombinant INSR assessed as residual activity at 10 uM after 1 hr by qPCR analysis relative to control
[7] = target: Proto-oncogene tyrosine-protein kinase Src (Homo sapiens) (UniProt P12931); test: Inhibition of human recombinant SRC assessed as residual activity at 10 uM after 1 hr by qPCR analysis relative to control
[8] = target: Casein kinase I isoform gamma-2 (Homo sapiens) (UniProt P78368); test: Inhibition of human recombinant CSNK1G2 assessed as residual activity at 10 uM after 1 hr by qPCR analysis relative to control
[9] = target: Aurora kinase A (Homo sapiens) (UniProt O14965); test: Inhibition of human recombinant AURKA assessed as residual activity at 10 uM after 1 hr by qPCR analysis relative to control
[10] = target: RAF proto-oncogene serine/threonine-protein kinase (Homo sapiens) (UniProt P04049); test: Inhibition of human recombinant RAF1 assessed as residual activity at 10 uM after 1 hr by qPCR analysis relative to control
[11] = target: Platelet-derived growth factor receptor alpha (Homo sapiens) (UniProt P16234); test: Inhibition of human recombinant PDGFRA assessed as residual activity at 10 uM after 1 hr by qPCR analysis relative to control
[12] = target: Mitogen-activated protein kinase 11 (Homo sapiens) (UniProt Q15759); test: Inhibition of human recombinant p38beta assessed as residual activity at 10 uM after 1 hr by qPCR analysis relative to control
Mus musculus [13] = test: Toxicity in athymic nude/beige mouse xenografted with human 786-O cells assessed as signs of facial hirsutism at 0.16 mg/kg, ip qd after 24 days; assay type: organism-based, 786-0; conditions: in vivo, 576 h
[14] = target: Cyclin-dependent kinase 2 (Homo sapiens) (UniProt P24941); test: Inhibition of human recombinant CDK2 assessed as residual activity at 10 uM after 1 hr by qPCR analysis relative to control
[15] = target: Cyclin-dependent kinase 16 (Homo sapiens) (UniProt Q00536); test: Inhibition of human recombinant PCTK1 assessed as residual activity at 10 uM after 1 hr by qPCR analysis relative to control
[16] = target: Focal adhesion kinase 1 (Homo sapiens) (UniProt Q05397); test: Inhibition of human recombinant FAK assessed as residual activity at 10 uM after 1 hr by qPCR analysis relative to control
[17] = target: Serine/threonine-protein kinase RIO2 (Homo sapiens) (UniProt Q9BVS4); test: Inhibition of human recombinant RIOK2 assessed as residual activity at 10 uM after 1 hr by qPCR analysis relative to control
[18] = target: Phosphatidylinositol 4-phosphate 3-kinase C2 domain-containing subunit beta (Homo sapiens) (UniProt O00750); test: Inhibition of human recombinant PIK3C2B assessed as residual activity at 10 uM after 1 hr by qPCR analysis relative to control
[19] = target: TGF-beta receptor type-1 (Homo sapiens) (UniProt P36897); test: Inhibition of human recombinant TGFBR1 assessed as residual activity at 10 uM after 1 hr by qPCR analysis relative to control
[20] = target: Serine/threonine-protein kinase PLK1 (Homo sapiens) (UniProt P53350); test: Inhibition of human recombinant PLK1 assessed as residual activity at 10 uM after 1 hr by qPCR analysis relative to control
[21] = target: Tyrosine-protein kinase receptor UFO (Homo sapiens) (UniProt P30530); test: Inhibition of human recombinant AXL assessed as residual activity at 10 uM after 1 hr by qPCR analysis relative to control
[22] = target: Mast/stem cell growth factor receptor Kit (Homo sapiens) (UniProt P10721); test: Inhibition of human recombinant KIT assessed as residual activity at 10 uM after 1 hr by qPCR analysis relative to control
[23] = target: Serine/threonine-protein kinase PAK 1 (Homo sapiens) (UniProt Q13153); test: Inhibition of human recombinant PAK1 assessed as residual activity at 10 uM after 1 hr by qPCR analysis relative to control
Mus musculus [24] = test: Toxicity in athymic nude/beige mouse xenografted with human 786-O cells assessed as mild spasm at 0.16 mg/kg, ip qd after 24 days; assay type: organism-based, 786-0; conditions: in vivo, 576 h
[25] = target: Mitogen-activated protein kinase 8 (Homo sapiens) (UniProt P45983); test: Inhibition of human recombinant JNK1 assessed as residual activity at 10 uM after 1 hr by qPCR analysis relative to control
[26] = target: Testis-specific serine/threonine-protein kinase 1 (Homo sapiens) (UniProt Q9BXA7); test: Inhibition of human recombinant TSSK1B assessed as residual activity at 10 uM after 1 hr by qPCR analysis relative to control
[27] = target: Receptor-type tyrosine-protein kinase FLT3 (Homo sapiens) (UniProt P36888); test: Inhibition of human recombinant FLT3 assessed as residual activity at 10 uM after 1 hr by qPCR analysis relative to control
[28] = target: Phosphatidylinositol 4,5-bisphosphate 3-kinase catalytic subunit alpha isoform (Homo sapiens) (UniProt P42336); test: Inhibition of human recombinant PIK3CA assessed as residual activity at 10 uM after 1 hr by qPCR analysis relative to control
[29] = target: Bone morphogenetic protein receptor type-2 (Homo sapiens) (UniProt Q13873); test: Inhibition of human recombinant BMPR2 assessed as residual activity at 10 uM after 1 hr by qPCR analysis relative to control
[30] = target: Proto-oncogene tyrosine-protein kinase receptor Ret (Homo sapiens) (UniProt P07949); test: Inhibition of human recombinant RET assessed as residual activity at 10 uM after 1 hr by qPCR analysis relative to control
[31] = target: Serine/threonine-protein kinase PLK3 (Homo sapiens) (UniProt Q9H4B4); test: Inhibition of human recombinant PLK3 assessed as residual activity at 10 uM after 1 hr by qPCR analysis relative to control
Serine/threonine-protein kinase PLK3 (Homo sapiens), sequence (Q9H4B4 whole entry, looked up): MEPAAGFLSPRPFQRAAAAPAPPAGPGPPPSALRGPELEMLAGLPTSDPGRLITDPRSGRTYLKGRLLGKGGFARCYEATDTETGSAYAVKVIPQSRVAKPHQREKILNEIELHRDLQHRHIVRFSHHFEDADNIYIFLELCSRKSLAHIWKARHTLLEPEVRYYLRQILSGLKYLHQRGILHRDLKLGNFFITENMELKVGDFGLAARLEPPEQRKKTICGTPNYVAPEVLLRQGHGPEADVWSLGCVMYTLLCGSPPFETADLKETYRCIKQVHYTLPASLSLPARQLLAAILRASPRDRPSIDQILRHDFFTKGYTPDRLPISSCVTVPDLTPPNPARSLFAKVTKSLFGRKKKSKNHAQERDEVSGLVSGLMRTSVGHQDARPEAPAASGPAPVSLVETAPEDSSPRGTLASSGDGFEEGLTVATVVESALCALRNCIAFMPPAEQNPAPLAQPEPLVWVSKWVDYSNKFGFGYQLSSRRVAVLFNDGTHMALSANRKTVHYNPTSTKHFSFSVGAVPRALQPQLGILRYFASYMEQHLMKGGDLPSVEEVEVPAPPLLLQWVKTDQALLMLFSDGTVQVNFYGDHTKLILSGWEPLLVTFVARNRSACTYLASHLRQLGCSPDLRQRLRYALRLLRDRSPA

RAF proto-oncogene serine/threonine-protein kinase (Homo sapiens), sequence (P04049 whole entry): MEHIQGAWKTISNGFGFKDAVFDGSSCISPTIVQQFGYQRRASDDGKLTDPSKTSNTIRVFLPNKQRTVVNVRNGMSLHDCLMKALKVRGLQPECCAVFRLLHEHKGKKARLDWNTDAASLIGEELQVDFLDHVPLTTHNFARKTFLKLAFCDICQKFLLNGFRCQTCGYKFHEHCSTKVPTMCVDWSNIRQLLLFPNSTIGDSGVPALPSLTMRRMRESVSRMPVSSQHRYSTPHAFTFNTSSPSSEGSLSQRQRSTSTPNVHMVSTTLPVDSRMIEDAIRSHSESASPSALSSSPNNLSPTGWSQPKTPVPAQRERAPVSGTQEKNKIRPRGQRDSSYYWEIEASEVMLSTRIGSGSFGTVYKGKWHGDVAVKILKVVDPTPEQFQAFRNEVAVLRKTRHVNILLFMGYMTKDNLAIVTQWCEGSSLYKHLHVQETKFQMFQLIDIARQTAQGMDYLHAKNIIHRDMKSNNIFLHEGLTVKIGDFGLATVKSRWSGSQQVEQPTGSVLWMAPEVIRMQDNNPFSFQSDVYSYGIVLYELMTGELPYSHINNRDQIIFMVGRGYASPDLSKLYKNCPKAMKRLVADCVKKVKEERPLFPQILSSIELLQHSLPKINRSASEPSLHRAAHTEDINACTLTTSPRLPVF
Mitogen-activated protein kinase 8 (Homo sapiens), sequence (P45983 whole entry): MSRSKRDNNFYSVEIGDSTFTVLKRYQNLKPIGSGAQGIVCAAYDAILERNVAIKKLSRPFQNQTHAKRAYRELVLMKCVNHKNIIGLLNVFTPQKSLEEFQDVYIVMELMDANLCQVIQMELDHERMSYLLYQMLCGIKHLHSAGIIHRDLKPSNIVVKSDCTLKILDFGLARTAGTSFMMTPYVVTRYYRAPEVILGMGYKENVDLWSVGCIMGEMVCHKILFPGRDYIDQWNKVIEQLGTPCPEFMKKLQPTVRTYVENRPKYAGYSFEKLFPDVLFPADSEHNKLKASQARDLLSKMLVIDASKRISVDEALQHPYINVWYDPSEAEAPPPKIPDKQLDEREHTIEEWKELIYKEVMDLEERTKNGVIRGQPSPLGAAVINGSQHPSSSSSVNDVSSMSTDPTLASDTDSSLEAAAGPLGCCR
Insulin receptor (Homo sapiens), sequence (P06213 28-758 limits assumed): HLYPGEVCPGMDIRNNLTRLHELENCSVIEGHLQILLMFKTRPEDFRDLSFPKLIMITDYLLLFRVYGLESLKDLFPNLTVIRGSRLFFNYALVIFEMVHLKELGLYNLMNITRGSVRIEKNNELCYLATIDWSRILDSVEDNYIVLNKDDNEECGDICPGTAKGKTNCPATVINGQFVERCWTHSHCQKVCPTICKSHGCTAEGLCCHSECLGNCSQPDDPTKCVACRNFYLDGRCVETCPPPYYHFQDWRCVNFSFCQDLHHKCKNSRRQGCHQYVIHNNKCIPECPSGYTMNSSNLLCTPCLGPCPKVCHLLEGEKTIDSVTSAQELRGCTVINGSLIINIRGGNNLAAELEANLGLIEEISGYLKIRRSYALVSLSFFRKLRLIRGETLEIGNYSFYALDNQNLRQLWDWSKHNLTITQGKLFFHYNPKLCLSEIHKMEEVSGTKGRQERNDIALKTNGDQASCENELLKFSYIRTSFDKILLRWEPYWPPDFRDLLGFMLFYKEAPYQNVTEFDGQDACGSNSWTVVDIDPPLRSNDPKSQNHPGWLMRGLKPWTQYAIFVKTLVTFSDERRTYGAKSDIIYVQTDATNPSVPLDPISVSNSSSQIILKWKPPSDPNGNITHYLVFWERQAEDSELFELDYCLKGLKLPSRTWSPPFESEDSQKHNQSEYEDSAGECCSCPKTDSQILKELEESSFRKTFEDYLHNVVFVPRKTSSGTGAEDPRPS
Insulin receptor (Homo sapiens), sequence (P06213 763-1382 limits assumed): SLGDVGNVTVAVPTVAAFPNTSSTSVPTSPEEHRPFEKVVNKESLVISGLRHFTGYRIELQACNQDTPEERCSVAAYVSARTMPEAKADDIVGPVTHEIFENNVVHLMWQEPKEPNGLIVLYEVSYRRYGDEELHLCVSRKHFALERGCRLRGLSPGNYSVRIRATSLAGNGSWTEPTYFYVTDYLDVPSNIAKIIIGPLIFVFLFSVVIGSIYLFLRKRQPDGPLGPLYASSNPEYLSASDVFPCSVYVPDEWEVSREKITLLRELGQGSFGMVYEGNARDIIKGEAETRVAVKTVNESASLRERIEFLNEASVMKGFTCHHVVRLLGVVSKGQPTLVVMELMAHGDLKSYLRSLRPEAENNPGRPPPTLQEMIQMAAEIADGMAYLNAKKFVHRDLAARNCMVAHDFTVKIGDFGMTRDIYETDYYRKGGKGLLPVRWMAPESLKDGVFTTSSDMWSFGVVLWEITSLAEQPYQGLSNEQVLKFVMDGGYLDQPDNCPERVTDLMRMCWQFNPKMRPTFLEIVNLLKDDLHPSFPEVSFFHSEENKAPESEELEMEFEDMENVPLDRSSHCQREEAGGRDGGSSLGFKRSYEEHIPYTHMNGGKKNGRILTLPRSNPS
Platelet-derived growth factor receptor beta (Homo sapiens), sequence (P09619 whole entry): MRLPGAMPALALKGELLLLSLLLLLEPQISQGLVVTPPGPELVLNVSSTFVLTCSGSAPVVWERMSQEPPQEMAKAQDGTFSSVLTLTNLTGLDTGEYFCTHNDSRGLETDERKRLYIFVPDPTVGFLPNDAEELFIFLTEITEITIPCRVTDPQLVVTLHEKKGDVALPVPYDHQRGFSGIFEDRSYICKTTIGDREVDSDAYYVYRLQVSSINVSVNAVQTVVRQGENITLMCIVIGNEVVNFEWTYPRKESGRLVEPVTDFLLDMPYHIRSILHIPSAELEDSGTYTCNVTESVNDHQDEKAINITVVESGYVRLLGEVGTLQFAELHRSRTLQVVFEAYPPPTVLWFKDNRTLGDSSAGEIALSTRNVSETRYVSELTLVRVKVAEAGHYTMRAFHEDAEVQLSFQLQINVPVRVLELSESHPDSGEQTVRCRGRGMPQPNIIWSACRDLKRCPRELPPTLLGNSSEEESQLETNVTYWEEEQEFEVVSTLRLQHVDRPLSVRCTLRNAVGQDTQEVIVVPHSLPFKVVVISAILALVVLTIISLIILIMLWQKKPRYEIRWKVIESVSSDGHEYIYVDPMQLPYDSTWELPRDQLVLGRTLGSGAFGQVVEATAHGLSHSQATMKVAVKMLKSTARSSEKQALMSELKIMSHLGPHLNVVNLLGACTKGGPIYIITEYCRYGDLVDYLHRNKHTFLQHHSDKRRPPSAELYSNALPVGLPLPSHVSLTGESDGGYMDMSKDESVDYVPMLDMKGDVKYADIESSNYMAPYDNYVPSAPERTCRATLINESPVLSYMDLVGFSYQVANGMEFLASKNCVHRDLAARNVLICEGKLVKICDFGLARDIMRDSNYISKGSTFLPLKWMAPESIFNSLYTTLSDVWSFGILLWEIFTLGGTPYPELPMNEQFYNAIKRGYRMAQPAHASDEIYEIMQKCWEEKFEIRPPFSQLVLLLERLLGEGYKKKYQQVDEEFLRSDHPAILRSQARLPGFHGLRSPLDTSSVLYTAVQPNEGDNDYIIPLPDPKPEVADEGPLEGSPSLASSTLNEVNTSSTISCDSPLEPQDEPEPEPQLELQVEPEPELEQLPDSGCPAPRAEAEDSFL
Cyclin-dependent kinase 16 (Homo sapiens), sequence (Q00536 whole entry): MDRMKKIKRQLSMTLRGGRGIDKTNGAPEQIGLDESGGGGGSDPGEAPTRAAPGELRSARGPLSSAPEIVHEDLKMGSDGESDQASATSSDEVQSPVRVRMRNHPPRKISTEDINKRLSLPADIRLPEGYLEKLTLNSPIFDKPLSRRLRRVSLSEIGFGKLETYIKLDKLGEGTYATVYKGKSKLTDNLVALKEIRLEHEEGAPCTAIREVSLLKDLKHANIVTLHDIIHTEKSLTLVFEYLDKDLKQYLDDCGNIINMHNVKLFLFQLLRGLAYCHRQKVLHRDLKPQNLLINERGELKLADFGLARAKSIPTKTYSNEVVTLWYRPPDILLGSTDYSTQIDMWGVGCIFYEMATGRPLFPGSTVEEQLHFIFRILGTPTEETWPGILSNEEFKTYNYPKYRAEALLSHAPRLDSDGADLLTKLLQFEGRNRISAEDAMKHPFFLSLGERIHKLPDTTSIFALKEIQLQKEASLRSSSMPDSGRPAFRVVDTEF
Testis-specific serine/threonine-protein kinase 1 (Homo sapiens), sequence (Q9BXA7 whole entry): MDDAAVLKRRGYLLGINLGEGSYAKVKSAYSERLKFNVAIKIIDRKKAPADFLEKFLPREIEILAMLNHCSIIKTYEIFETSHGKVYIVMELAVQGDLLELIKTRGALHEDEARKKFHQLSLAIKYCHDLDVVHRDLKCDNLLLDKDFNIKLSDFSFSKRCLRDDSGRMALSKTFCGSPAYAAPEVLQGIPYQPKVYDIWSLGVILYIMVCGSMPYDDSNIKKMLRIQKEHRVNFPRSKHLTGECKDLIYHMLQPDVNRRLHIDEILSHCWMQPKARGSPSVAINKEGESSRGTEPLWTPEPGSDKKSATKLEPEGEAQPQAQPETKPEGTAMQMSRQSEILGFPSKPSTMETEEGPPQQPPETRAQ

SMILES: Cc1c(Cl)cccc1NC(=O)c1sc2nc3c(cc2c1N)C(=O)CC3
- Activity [1]: 100%
- Activity [2]: 94%
- Activity [3]: 95%
- Activity [4]: 98%
- Activity [5]: 90%
- Activity [6]: 97%
- Activity [7]: 95%
- Activity [8]: 97%
- Activity [9]: 98%
- Activity [10]: 100%
- Activity [11]: 100%
- Activity [12]: 100%
- Activity (Mus musculus [13]): Toxic
- Activity [14]: 100%
- Activity [15]: 100%
- Activity [16]: 100%
- Activity [17]: 43%
- Activity [18]: 100%
- Activity [19]: 100%
- Activity [20]: 91%
- Activity [21]: 100%
- Activity [22]: 95%
- Activity [23]: 87%
- Activity (Mus musculus [24]): Toxic
- Activity [25]: 100%
- Activity [26]: 65%
- Activity [27]: 100%
- Activity [28]: 100%
- Activity [29]: 96%
- Activity [30]: 100%
- Activity [31]: 100%
